Laboratory results from patent publication US20240415124A1, “HERBICIDAL COMPOSITION CONTAINING 3-(2-CHLORO-4-FLUORO-5-(3-METHYL-2,6-DIOXO-4-TRIFLUOROMETHYL-3,6-DIHYDROPYRIMIDIN-1(2H)-YL)PHENYL)-5-METHYL-4,5-DIHYDROISOXAZOLE-5-CARBOXYLIC ACID ETHYL ESTER AND GLUFOSINATE-P AND USE THEREOF” (NANTONG JIANGSHAN AGROCHEMICAL & CHEMICALS CO., LTD., priority 2022, published 2024).

Test system: Erigeron canadensis
Experiment: Laboratory activity determination test (greenhouse pot test, stem and leaf spray, fresh weight inhibition, Gowing method)
Format: in vivo
Details: single pesticide
Method: (1) Test objective: Inhibitory effects of 3-(2-chloro-4-fluoro-5-(3-methyl-2,6-dioxo-4-trifluoromethyl-3,6-dihydropyrimidin-1(2H)-yl)phenyl)-5-methyl-4,5-dihydroisoxazole-5-carboxylic acid ethyl ester, glufosinate-P and different mixed compositions of the two pesticides on Erigeron canadensis under potting conditions in a greenhouse are determined, and a combined action of the two pesticides is evaluated. […] After a pesticide liquid was air-dried, a test material was placed in a greenhouse for cultivation. […] A method for evaluating the combined action of the two pesticides after compounding was used with reference to a Gowing method in Pesticides Guidelines for Laboratory Bioactivity Tests: Determining Combined Action of Mixtures.
Fresh weight inhibition rate %=(fresh weight of a control group—fresh weight of a treatment group)/fresh weight of a control group*100.
When E-E0 is greater than −10 and less than 10, an additive effect is achieved. When E-E0 is equal to or less than −10, an antagonistic effect is achieved.

Row | SMILES | Measured control efficacy E (%) (dosage 1 g a.i./mu) | Measured control efficacy E (%) (dosage 2 g a.i./mu) | Measured control efficacy E (%) (dosage 3 g a.i./mu) | Measured control efficacy E (%) (dosage 4 g a.i./mu) | Measured control efficacy E (%) (dosage 5 g a.i./mu) | Measured control efficacy E (%) (dosage 8 g a.i./mu) | Measured control efficacy E (%) (dosage 12 g a.i./mu) | Measured control efficacy E (%) (dosage 16 g a.i./mu) | Measured control efficacy E (%) (dosage 20 g a.i./mu) | Measured control efficacy E (%) (dosage 24 g a.i./mu)
1 | CCOC(=O)C1(C)CC(c2cc(-n3c(=O)cc(C(F)(F)F)n(C)c3=O)c(F)cc2Cl)=NO1 (stereo not shown) [3-(2-chloro-4-fluoro-5-(3-methyl-2,6-dioxo-4-trifluoromethyl-3,6-dihydropyrimidin-1(2H)-yl)phenyl)-5-methyl-4,5-dihydroisoxazole-5-carboxylic acid ethyl ester] | 33.82 | 44.46 | 72.89 | 80.22 | 89.09 |  |  |  |  | 
2 | CP(=O)(O)CC[C@H](N)C(=O)O [Glufosinate-P] |  |  |  |  |  | 21.63 | 51.94 | 67.92 | 74.07 | 78.07
